In patent publication US20240376138A1, “Crystal Forms, Preparation Method And Application Of Aryl Phosphine Oxide Compound” (Chengdu Di'Ao Jiuhong Pharmaceutical Factory, priority 2021, published 2024):

Assay: Stability test 2: different temperature and humidity conditions, XRPD
Type: physicochemical

COc1cc(N2CCC(N3CCN(C)CC3)CC2)c(C)cc1Nc1ncc(Br)c(Nc2ccc(C)cc2P(C)(C)=O)n1 [Crystal form 1, (2-((5-bromo-2-((2-methoxy-5-methyl-4-(4-(4-methylpiperazin-1-yl)piperidin-1-yl)phenyl)amino)pyrimidin-4-yl)amino)-5-methylphenyl)dimethylphosphorus oxide dihydrate]
Crystal form 1: Analysis of result of Day 4 (XRPD) (25° C.-60% RH) | Analysis of result of Day 6 (XRPD) (25° C.-60% RH) | Analysis of result of Day 11 (XRPD) (25° C.-60% RH) | Analysis of result of Day 4 (XRPD) (40° C.-75% RH) | Analysis of result of Day 6 (XRPD) (40° C.-75% RH) | Analysis of result of Day 11 (XRPD) (40° C.-75% RH) | Analysis of result of Day 4 (XRPD) (RT-12% RH) | Analysis of result of Day 6 (XRPD) (RT-12% RH) | Analysis of result of Day 11 (XRPD) (RT-12% RH) | Analysis of result of Day 4 (XRPD) (RT-58% RH) | Analysis of result of Day 6 (XRPD) (RT-58% RH) | Analysis of result of Day 11 (XRPD) (RT-58% RH) | Analysis of result of Day 4 (XRPD) (RT-97% RH) | Analysis of result of Day 6 (XRPD) (RT-97% RH) | Analysis of result of Day 11 (XRPD) (RT-97% RH)
